Laboratory results: PubChem BioAssay AID652002 (Sanford-Burnham Center for Chemical Genomics, 2013)
Active and inactive are the calls of the source. How the calls were made is not given here.

Columns and labels:
NB7+Caspase-8 = assay: TRAIL sensitizers in caspase-8 expressing neuroblastoma cells, dose response, NB7 cells plus caspase-8, luminescence, panel (AID 652002); settings: NB7 neuroblastoma +caspase-8, TRAIL sensitization, luminescence viability, with TRAIL
[1] = as above; settings: NB7 neuroblastoma +caspase-8, no TRAIL, compound-alone cytotoxicity counter-screen, luminescence viability, NB7+Caspase-8
[2] = target: Tumor necrosis factor receptor superfamily member 10B (Homo sapiens) (UniProt O14763); assay: as above; settings: NB7 neuroblastoma +caspase-8, TRAIL sensitization, luminescence viability; NB7+Caspase-8; with TRAIL, mean of runs
Tumor necrosis factor receptor superfamily member 10B (Homo sapiens), sequence (O14763 whole entry, looked up): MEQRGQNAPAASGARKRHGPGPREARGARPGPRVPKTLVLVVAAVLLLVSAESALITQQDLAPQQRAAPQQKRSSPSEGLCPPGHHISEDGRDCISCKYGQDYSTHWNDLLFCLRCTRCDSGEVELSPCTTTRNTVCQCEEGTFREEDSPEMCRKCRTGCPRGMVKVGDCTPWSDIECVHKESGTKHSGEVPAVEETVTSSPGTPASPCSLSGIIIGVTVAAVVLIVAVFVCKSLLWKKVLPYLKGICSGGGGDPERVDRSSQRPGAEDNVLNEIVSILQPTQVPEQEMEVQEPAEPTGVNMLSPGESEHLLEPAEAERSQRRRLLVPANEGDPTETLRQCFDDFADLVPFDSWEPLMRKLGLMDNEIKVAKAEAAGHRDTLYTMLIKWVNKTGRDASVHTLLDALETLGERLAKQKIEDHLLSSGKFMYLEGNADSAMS

[3] = run 1, single replicate panel EC50
[4] = run 2, single replicate panel EC50

Row | Structure (SMILES) | EC50 (NB7+Caspase-8; [3]) [µM] | EC50 (NB7+Caspase-8; [4]) [µM] | EC50 ([1]; mean of runs) | EC50 [1, 3] [µM] | EC50 [1, 4] [µM] | EC50 [2]
1 | Cc1cc(NC(=O)c2cncc(Br)c2)ccc1NC(=O)c1cc2ccccc2o1 | > 12.5 | 9.86 | > 12.5 µM (inactive) | > 12.5 | > 12.5 | inactive
2 | CCOC(=O)c1cnc2c(-c3ccccc3)cnn2c1N | > 12.5 | > 12.5 | > 12.5 µM (inactive) | > 12.5 | > 12.5 | > 12.5 µM (inactive)
3 | COC(=O)c1ccc(/C=C/c2nc3ccccc3c(=O)[nH]2)cc1 | > 12.5 | > 12.5 | > 12.5 µM (inactive) | > 12.5 | > 12.5 | > 12.5 µM (inactive)
4 | COc1ccc(/C=N/Nc2nc3ccccc3c(=O)n2-c2ccccc2)cc1OC | > 12.5 | 9.41 | inactive | 7.35 | 9.86 | inactive
5 | Cc1ccnc(NC(=O)Nc2ccc3c(c2)OCO3)c1 | > 12.5 | > 12.5 | > 12.5 µM (inactive) | > 12.5 | > 12.5 | > 12.5 µM (inactive)
6 | Cc1ccc2oc(-c3cccc(N)c3)nc2c1 | > 12.5 | 5.69 | inactive | 4.71 | 7.88 | inactive
7 | O=C(Oc1c(CN2CCOCC2)cc(Cl)c2cccnc12)c1cccs1 | > 12.5 | 6.75 | > 12.5 µM (inactive) | > 12.5 | > 12.5 | inactive
8 | COCCCn1c(C(=O)Nc2ccc3c(c2)OCO3)cc2c(=O)n3cccc(C)c3nc21 | > 12.5 | > 12.5 | > 12.5 µM (inactive) | > 12.5 | > 12.5 | > 12.5 µM (inactive)
9 | CSc1nc(N)n2nc(-c3ccc(Cl)cc3)cc2n1 | > 12.5 | > 12.5 | > 12.5 µM (inactive) | > 12.5 | > 12.5 | > 12.5 µM (inactive)
10 | COC(=O)[C@]12CCCCC=C1N(Cc1cccc3ccccc13)C(=O)[C@H](CC(=O)NCc1ccc(OC)c(OC)c1)C2 | > 12.5 | 10.7 | inactive | > 12.5 | 10.2 | inactive
11 | O=C(N/N=C/c1cccnc1)c1ccc2c(c1)OCO2 | > 12.5 | > 12.5 | inactive | 11.2 | > 12.5 | > 12.5 µM (inactive)
12 | Cc1ccn2cc(C(=O)Nc3ccc4c(c3)OCCO4)nc2c1 | > 12.5 | 4.29 | inactive | 7.08 | 8.4 | inactive
13 | COc1cccc(NC(=O)Nc2nccc(C)n2)c1 | > 12.5 | 4.33 | > 12.5 µM (inactive) | > 12.5 | > 12.5 | inactive
14 | COC(=O)c1ccc(/C=C(\C#N)c2ccccn2)cc1 | > 12.5 | > 12.5 | > 12.5 µM (inactive) | > 12.5 | > 12.5 | > 12.5 µM (inactive)
15 | CCCCCCCn1c2c(c(=N)c3ccccc31)CCC2 | > 12.5 | 4.65 | > 12.5 µM (inactive) | > 12.5 | > 12.5 | inactive
